Reference: ChEMBL document CHEMBL4418261, “Pyripyropene derivatives having acat2 inhibiting activity and stable to metabolizing enzymes” (2017)

Tests used:
[1] = biological target: T1, Sterol O-acyltransferase 2 (Mus musculus, UniProt O88908); test: Inhibition of ACAT2 in mouse hepatic microsome membranes using [1-14C]oleoyl coenzyme A as substrate incubated for 5 mins; type: microsomes, Liver
T1 sequence (O88908 whole entry): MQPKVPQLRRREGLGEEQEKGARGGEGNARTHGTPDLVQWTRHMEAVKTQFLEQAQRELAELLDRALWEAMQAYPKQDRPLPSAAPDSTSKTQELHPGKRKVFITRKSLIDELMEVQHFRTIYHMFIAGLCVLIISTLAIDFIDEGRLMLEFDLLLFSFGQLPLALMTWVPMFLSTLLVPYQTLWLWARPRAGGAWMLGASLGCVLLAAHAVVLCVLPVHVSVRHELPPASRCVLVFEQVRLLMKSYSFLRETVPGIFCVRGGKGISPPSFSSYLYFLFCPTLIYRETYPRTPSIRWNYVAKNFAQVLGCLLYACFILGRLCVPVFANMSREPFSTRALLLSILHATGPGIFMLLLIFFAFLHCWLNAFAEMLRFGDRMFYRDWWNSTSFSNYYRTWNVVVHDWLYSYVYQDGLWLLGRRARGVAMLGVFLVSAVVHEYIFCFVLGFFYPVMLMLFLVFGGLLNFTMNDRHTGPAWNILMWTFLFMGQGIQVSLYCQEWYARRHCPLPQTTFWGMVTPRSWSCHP

[2] = Half life in Sprague-Dawley rat hepatic microsomes at 6 ug/ml by LC-MS method; type: ADME, Microsome; conditions: liver microsomes
[3] = biological target: T2, Sterol O-acyltransferase 2 (Mus musculus) (UniProt O88908); test: Potency index, ratio of PRD-043 IC50 to test compound IC50 for inhibition ACAT2 in mouse hepatic microsome membranes using [1-14C]oleoyl coenzyme A as substrate incubated for 5 mins; type: microsomes
T2 sequence (whole entry): T1 sequence (O88908 whole entry)

| IC50 [1] [nM] | half-life at 6 ug/ml [2] [h] | Ratio IC50 [3] | Structure (SMILES) |
| --- | --- | --- | --- |
| 0.5 to 1 | > 9 | 10 to 20 | COC(=O)[C@]1(C)[C@@H](OC(C)=O)CC[C@]2(C)[C@H]3[C@@H](O)c4c(cc(-c5cccnc5)oc4=O)O[C@]3(C)[C@@H](OC(=O)c3ccc(C#N)cc3)C[C@H]21 |
| < 0.5 | > 9 | < 20 | COc1ccc(CNC(=O)[C@]2(C)[C@@H](OC(C)=O)CC[C@]3(C)[C@H]4[C@@H](O)c5c(cc(-c6cccnc6)oc5=O)O[C@]4(C)[C@@H](OC(=O)c4ccc(C#N)cc4)C[C@H]32)c(OC)c1 |
| 1 to 10 | > 9 | 10 to 20 | Cc1ccccc1[C@@H]1OC[C@@]2(C)[C@@H]3C[C@H](OC(=O)c4ccc(C#N)cc4)[C@@]4(C)Oc5cc(-c6cccnc6)oc(=O)c5[C@H](O)[C@@H]4[C@@]3(C)CC[C@@H]2O1 |
| < 0.5 | > 9 | < 20 | CC(=O)O[C@H]1CC[C@]2(C)[C@H]3[C@@H](O)c4c(cc(-c5cccnc5)oc4=O)O[C@]3(C)[C@@H](OC(=O)c3ccc(C#N)cc3)C[C@H]2[C@]1(C)C(=O)O |
